# Measurements from patent US12685773B2 (priority 2020, dated 2026).
# Key:
# relapsed/refractory HL = settings: cited from earlier work
# [1] = 3 patients did not have data at 3 months
# [2] = AE of special interest, classical HL patients
# [3] = Grade 3 or higher AE, classical HL patients
# [4] = not resolved by Day 28, classical HL patients
# [5] = 9 patients evaluated at 6 weeks after infusion
molecule,measurement,setting,value
Cn1c(CCCC(=O)O)nc2cc(N(CCCl)CCCl)ccc21 [Benda],Prolonged Grade 3/4 Anemia (at month 3): n,[1],0
same,Prolonged Grade 3/4 Neutropenia (at month 3): n,[1],0
same,Prolonged Grade 3/4 Thrombocytopenia (at month 3): n,[1],0
same,Cytokine Release Syndrome (all Grade 1): %,[2],(13) %
same,Cytokine Release Syndrome (all Grade 1): n,[2],1
same,Anemia: n,[3],0
same,Dyspnea: n,[3],0
same,Headache: n,[3],0
same,Hypoalbuminemia: n,[3],0
same,Hyponatremia: n,[3],0
same,Leukopenia: %,[3],(38) %
same,Leukopenia: n,[3],3
same,Lung Infection: n,[3],0
same,Lymphopenia: %,[3],(100) %
same,Lymphopenia: n,[3],8
same,Neutropenia: %,[3],(25) %
same,Neutropenia: n,[3],2
same,Pharyngitis: n,[3],0
same,Rash: n,[3],0
same,Thrombocytopenia: %,[3],(13) %
same,Thrombocytopenia: n,[3],1
same,Grade 3/4 Anemia at day 28: n,classical HL patients,0
same,Rash (Any Grade): %,classical HL patients,(25) %
same,Rash (Any Grade): n,"classical HL patients, maculopapular skin rash",2
same,Grade 3/4 Neutropenia at day 28: n,[4],0
same,Grade 3/4 Thrombocytopenia at day 28: n,[4],0
cyclophosphamide and fludarabine,CR,relapsed/refractory HL; [5],66.6%
same,ORR,relapsed/refractory HL; [5],66.6%
same,PD,relapsed/refractory HL; [5],33.3%
same,disease progression: patients,relapsed/refractory HL; out of 9 patients evaluated at 6 weeks after infusion,3
same,CR: patients,"relapsed/refractory HL; out of 9 patients evaluated at 6 weeks after infusion, cyclophosphamide 500 mg/m^2 and fludarabine 30 mg/m^2 daily for 3 days",6
